The results in this text go back to patent US20250144442A1, “LIGHT-GUIDING ADHESIVE PATCH” (SAMSUNG LIFE PUBLIC WELFARE FOUNDATION, priority 2023, published 2025).

The data set has as its system malignant glioma U87 cell line. Description: WST-1 cell viability assay for PDT anti-cancer effectiveness. Type of data set: cell-based. The note with it: 50 μM Hypericin, 2 hours incubation at 37° C., U87 cells, no simultaneous light; FIG. 11a. How it is done: To maximize light transmission, a 530±15 nm LED was used to verify the improvement in PDT efficiency with a developed light-guiding adhesive patch using the malignant glioma U87 cell line.
Specifically, the anti-cancer effectiveness through PDT was verified using the WST-1 cell viability assay. During the PDT efficiency verification, initial tests were conducted to establish PDT conditions, investigating the toxicity of the photosensitizer and light exposure.

In the case of `Cc1cc(O)c2c(=O)c3c(O)cc(O)c4c5c(O)cc(O)c6c(=O)c7c(O)cc(C)c8c1c2c(c34)c(c78)c65` [Hypericin], the “inhibition of cell viability (toxicity of the photosensitizer)” value was “No specific inhibition of cell viability”.
